Residues, ends and D or L forms follow the SMILES beside them. No end group written: not given here. A value given as a limit tells only on which side of the number the result lay.

The test system of one assay is L. monocytogenes EGD. Format: cell-based, Listeria monocytogenes. The conditions noted are these: 24 h. Here is the method:
(§1) Antibacterial activity of recombinant bacteriocins against a number of Gram-positive and Gram-negative bacteria (Table S2) was determined by the method of two-fold serial dilutions in a liquid medium. Two-fold serial dilutions of bacteriocins were prepared in sterile 96-well flat-bottom polystyrene microplates (Eppendorf, Hamburg, Germany) (Cat. No. 0030730.011) in a volume of 50 µL of sterile 0.1% bovine serum albumin (BSA) (SERVA Electrophoresis GmbH, Heidelberg, Germany) to prevent non-specific sorption of peptides to the surface of the plate wells [23]. Mid-log phase bacterial cultures were diluted with the 2x Mueller-Hinton broth (MHB) (Sigma-Aldrich, St. Louis, MO, USA) to a final cell concentration of 10^6 colony forming units (CFU) per mL. To determine the activity of bacteriocins against Listeria and Enterococci, 3% tryptic soy broth (TSB) (Merck-Millipore, Burlington, MA, USA) was used instead of MHB. Aliquots of 50 μL of diluted bacterial suspensions were added to each well of the plate, which was then incubated at 37 °C and 950 rpm for 24 h using thermostatable plate shaker PST-60HL-4 (Biosan, Riga, Latvia). As a negative control, 50 µL of the sterile growth medium (2xMHB or 6% TSB) was added to the wells containing 50 µL of 0.1% BSA. The values of the minimum inhibitory concentrations (MIC) were determined as the minimum concentration of the peptide, at which there was no visible growth of bacterial culture. Incubation for 2 h with 20 µg/mL chromogenic substrate resazurin (Sigma-Aldrich, St. Louis, MO, USA) was used to detect viable bacterial cells if they were difficult to visually detect. To study the effect of inorganic salts on the antimicrobial activity of bacteriocins, antibacterial activity assay was carried out in MHB medium supplemented with 0.9% NaCl.

A further assay deals with L. lactis MK43. In words: Antibacterial activity assay (MIC), two-fold serial dilutions in liquid medium. Format: cell-based. The conditions noted are these: MHB, 0.1% BSA, 37 °C, 24 h, no visible growth. Here is the method:
as §1

The next assay deals with A. baumannii XDR CI 2675. Format: cell-based. The conditions noted are these: XDR CI 2675, 24 h. On the procedure: as §1
For another assay, the system named is B. licheniformis B-511. The format is cell-based. The conditions noted are these: 24 h. Here is the method:
as §1

For the next assay, the system named is B. subtilis B-886. The format is cell-based. The conditions noted are these: B-886, 24 h. Here is the method: as §1
Another assay deals with E. coli ATCC 25922. Format: cell-based. The conditions noted are these: ATCC 25922, 24 h. On the procedure:
as §1

For the next assay, the system named is E. coli ML-35p. Format: cell-based. The conditions noted are these: 24 h. On the procedure: as §1
The next assay has as its system E. coli SQ110. Format: cell-based. The conditions noted are these: SQ110, 24 h. Here is the method:
as §1

The next assay concerns E. coli XDR CI 1057. Format: cell-based. The conditions noted are these: XDR CI 1057, 24 h. On the procedure:
as §1

The next assay has as its system L. lactis MK66. The format is cell-based. The conditions noted are these: MK66, 24 h. Here is the method: as §1
The test system of another assay is M. luteus Ac-2229. Format: cell-based. The conditions noted are these: Ac-2229, 24 h. On the procedure:
as §1

A further assay has as its system M. phlei Ac-1221. Format: cell-based. The conditions noted are these: 24 h. Here is the method: as §1
For assay [1], the system named is P. aeruginosa MDR CI 1995. Format: cell-based. The conditions noted are these: MDR CI 1995, 24 h. Here is the method: as §1
A further assay relates to S. aureus 209P. The format is cell-based. The conditions noted are these: 24 h. Here is the method: as §1

For the compound “KTYYGTNGVHCTKKSLWGKVRLKNVIPGTLCRKQSLPIKQDLKILLGWATGAFGKTFH (cysteines drawn unpaired) [AcdA (DTT reduced)]”, the “Minimum Inhibitory Concentration” value is listed as >32 µM in the assay on L. monocytogenes EGD; 2 µM in the assay with L. lactis MK43; 8 µM with A. baumannii XDR CI 2675; 4 µM in the assay on B. licheniformis B-511; 4 µM in the assay with B. subtilis B-886; 8 µM with E. coli ATCC 25922. Besides, the “Minimum Inhibitory Concentration” value was 4 µM in the assay with E. coli ML-35p; 4 µM in the assay on E. coli SQ110; 16 µM in the assay on E. coli XDR CI 1057; 1 µM with L. lactis MK66; 16 µM in the assay with M. luteus Ac-2229; 4 µM in the assay on M. phlei Ac-1221. Besides, the “Minimum Inhibitory Concentration” value in [1] is listed as >32 µM; with S. aureus 209P, 16 µM.
In the case of `CC[C@H](C)[C@H](NC(=O)[C@H](Cc1ccc(O)cc1)NC(=O)[C@@H](NC(=O)[C@@H](NC(=O)[C@H](CC(N)=O)NC(=O)[C@H](CCC(N)=O)NC(=O)[C@H](CC(=O)O)NC(=O)[C@H](Cc1ccc(O)cc1)NC(=O)[C@H](CCCCN)NC(=O)[C@@H](NC(=O)[C@H](CC(N)=O)NC(=O)[C@H](CCCCN)NC(=O)[C@H](CC(C)C)NC(=O)[C@H](CCCNC(=N)N)NC(=O)[C@@H](NC(=O)[C@H](CCCCN)NC(=O)CNC(=O)[C@H](Cc1c[nH]c2ccccc12)NC(=O)[C@H](CC(C)C)NC(=O)[C@H](CO)NC(=O)[C@H](CC(N)=O)NC(=O)[C@H](CCCCN)NC(=O)[C@@H](NC(=O)[C@H](CS)NC(=O)[C@H](Cc1c[nH]cn1)NC(=O)[C@@H](NC(=O)CNC(=O)[C@H](CC(N)=O)NC(=O)[C@@H](NC(=O)CNC(=O)[C@H](Cc1ccc(O)cc1)NC(=O)[C@H](Cc1ccc(O)cc1)NC(=O)[C@@H](NC(=O)[C@@H](N)CCCCN)[C@@H](C)O)[C@@H](C)O)C(C)C)[C@@H](C)O)C(C)C)C(C)C)[C@@H](C)O)[C@@H](C)O)C(=O)NCC(=O)N[C@@H](CCCNC(=N)N)C(=O)N[C@@H](CC(C)C)C(=O)N[C@@H](CCC(N)=O)C(=O)N[C@@H](CC(=O)O)C(=O)N[C@H](C(=O)N[C@@H](CC(C)C)C(=O)N[C@@H](CC(C)C)C(=O)NCC(=O)N[C@@H](Cc1c[nH]c2ccccc12)C(=O)N[C@@H](C)C(=O)N[C@H](C(=O)NCC(=O)N[C@@H](C)C(=O)N[C@@H](Cc1ccccc1)C(=O)NCC(=O)N[C@@H](CCCCN)C(=O)N[C@H](C(=O)N[C@@H](Cc1ccccc1)C(=O)N[C@@H](Cc1c[nH]cn1)C(=O)O)[C@@H](C)O)[C@@H](C)O)[C@@H](C)CC` [OR-7(VI) (DTT reduced)] (H-KTYYGTNGVHCTKNSLWGKVRLKNVKYDQNTTYIGRLQDILLGWATGAFGKTFH-OH; N-terminus and C-terminus assumed), the “Minimum Inhibitory Concentration” value is >32 µM in the assay on L. monocytogenes EGD; >32 µM in the assay on L. lactis MK43; >32 µM with A. baumannii XDR CI 2675; 8 µM in the assay with B. licheniformis B-511; 16 µM in the assay with B. subtilis B-886; >32 µM in the assay on E. coli ATCC 25922. The “Minimum Inhibitory Concentration” value with E. coli ML-35p is >32 µM; with E. coli SQ110, >32 µM; in the assay on E. coli XDR CI 1057, >32 µM; in the assay with L. lactis MK66, 4 µM; with M. luteus Ac-2229 it was >32 µM; with M. phlei Ac-1221 it was 32 µM. In addition, the “Minimum Inhibitory Concentration” value (in assay [1]; with S. aureus 209P) was >32 µM in each case.
